Test results taken from US9868736B2, “Deubiquitinase inhibitors and methods for use of the same” (THE REGENTS OF THE UNIVERSITY OF MICHIGAN, priority 2013, dated 2018).
Converted amounts (≈) assume the structure as drawn.

Experiments:
[1] = biological target: T1, catalytic domain of Usp9x (Usp9xCD) (Homo sapiens, UniProt Q93008); test: Usp9xCD Ub-AMC enzyme assay; format: biochemical; conditions: screen of 210 structures
T1 construct: DNA corresponding to amino acids 1553-1960 of human Usp9x; His6-Smt3 (SUMO) fusion tag, ULP1-cleavable (N, cleaved yes); made in house; host or cells: E. coli
T1 sequence (Q93008 1553-1960): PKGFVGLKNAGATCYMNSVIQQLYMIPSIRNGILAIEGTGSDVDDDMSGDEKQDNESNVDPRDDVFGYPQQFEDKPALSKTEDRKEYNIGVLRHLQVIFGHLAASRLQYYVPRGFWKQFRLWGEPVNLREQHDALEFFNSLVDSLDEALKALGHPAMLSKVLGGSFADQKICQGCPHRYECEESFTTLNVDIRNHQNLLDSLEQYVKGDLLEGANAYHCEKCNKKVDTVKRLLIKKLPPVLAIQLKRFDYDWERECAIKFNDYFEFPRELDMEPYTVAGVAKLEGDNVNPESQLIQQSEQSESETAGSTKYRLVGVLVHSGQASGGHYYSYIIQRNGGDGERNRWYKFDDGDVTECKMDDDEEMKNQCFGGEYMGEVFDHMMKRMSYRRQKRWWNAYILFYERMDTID
Procedure: A series of chemical modifications were initiated to increase our structure activity relationship (SAR) analysis of inhibitors. […] The DNA was cloned into a ULP1-protease cleavable N-terminal His6-Smt3-fusion tag expression vector, derived from pET-28. Protein expression was induced at OD600 2.0, in TB media with Kanamycin overnight at 16° C. Cells were harvested and flash frozen before use. […] Protein was concentrated to roughly 20-40 mg/ml before aliquots were flash-frozen. All steps were performed in the presence of reducing agents, either BME, DTT, or TCEP.
Purified recombinant enzyme in buffer containing 2 mM DTT was buffer exchanged into 25 mM Tris-HCl, 50 mM NaCl and 1 mg/ml BSA using a spin column. […] IC50 values were estimated by integrating the slope of each reaction using GraphPad 6.
Two hundred and ten (210) novel chemical structures were screened for Usp9xCD inhibitory activity using this assay. […] Fluorescent scans were used to assess Usp9xCD inhibitory activity in this enzyme assay for all compounds of interest. Each assay was performed in duplicate and the linear region of each reaction curve was used to calculate IC50 values for Usp9xCD inhibition which are tabulated in Table 1.

Mcl-1, PARP = test: Mcl-1 level and PARP cleavage in treated tumor cells; format: cell-based
aqueous solubility = format: physicochemical
MM1.S tumor = MM1.S tumor growth in NSG mice; format: in vivo, NOD/SCID/gamma-2 knockout mice (NSG)
Procedure: Ten million MM1.S tumor cells were injected into the dorsal region of twenty female NOD/SCID/gamma-2 knockout mice (NSG) weighing ˜20 grams each. After 3 weeks tumors became visible and measurable with calipers. Mice were separated into four groups of 5 mice each and IP injected with G9 dissolved in 55% dimethyl sulfoxide, 25% polyethylene glycol 300, 20% phosphate-buffered saline at dose levels of 0, 2.5, 5 and 10 mg/kg mouse body weight. Animals were injected once per day for 14 days and tumor growth (measured with calipers) and animal weight were monitored over the treatment interval. The resulting changes in tumor growth for each group are shown and represented as the average+/−standard error of the mean for each group. The p-values were calculated using GraphPad InStat. P-values lower than 0.05 are considered significant. […] Animal weight was not affected by G9 injection in any of the mice. […] Twenty female NSG mice were inoculated subcutaneously with 10 million MM1.S cells in Matrigel and cell culture media (1:1) in a total volume of 0.1 mL. When tumors were measurable with calibers (3 weeks post tumor cell injection), mice were divided into 4 groups of five mice each and treated with the dose of G9 indicated. Tumor growth (left) and animal weight (right) were recorded at the interval noted. The results represent the average+/−SD of 5 animals per data point. P-values <0.05 are considered significant and were calculated using GraphPad InStat.
A second animal study was conducted in NSG mice with mice receiving higher dose levels of G9. Tumor inoculation and compound administration were similar to those utilized in the lower dose study. However, 3 mice per treatment group were used in this study and additional G9 doses were tested for safety and efficacy. […] NSG mice were inoculated with MM1.S tumors as described in FIG. 7. When tumors were measurable with calipers, mice were placed into 5 groups of 3 mice each and treated with G9 at 0, 5, 10, 15 and 20 mg/kg for 12 days with daily injection. Tumor size (left) and animal weight (right) were recorded over the treatment interval. […] The result of G9 treatment is also depicted as tumor volume over time for each treatment group (FIG. 4—top). Tumors extracted from each of the three mice in each treatment group following the last injection were photographed and shown in FIG. 4 (bottom). […] Control and treated mouse tumor sizes are shown on the left. Bars from left to right in each treatment group represent tumor size after 0, 4, 6, 8 and 11 days of treatment. Each bar represents the average+/−S.D. of measurements made in 3 mice per group. The significance of change in tumor volume between treated and control mice was calculated using GraphPad InStat. P-values<0.05 are considered significant. On the bottom, tumors were extracted from control and treated mice and photographed. Each row illustrates tumor from each of the three mice in the treatment group noted on the top of each row.

murine norovirus = test: antiviral screen against murine norovirus in macrophages; format: cell-based; conditions: RAW cells, Swiss Webster and Balb/c bone marrow derived macrophages, FIG. 8
Source text: G9 was screened in RAW cells, Swiss Webster bone marrow derived macrophages and Balb/c bone marrow derived macrophages, compared to vehicle (DMSO), prior compound WP1130 and compound VM030. […] VM030 has a structure of […]

Usp24 = Usp24 (Homo sapiens, UniProt Q9UPU5); test: Usp24 inhibition
Chain of Usp24 (Q9UPU5 whole entry): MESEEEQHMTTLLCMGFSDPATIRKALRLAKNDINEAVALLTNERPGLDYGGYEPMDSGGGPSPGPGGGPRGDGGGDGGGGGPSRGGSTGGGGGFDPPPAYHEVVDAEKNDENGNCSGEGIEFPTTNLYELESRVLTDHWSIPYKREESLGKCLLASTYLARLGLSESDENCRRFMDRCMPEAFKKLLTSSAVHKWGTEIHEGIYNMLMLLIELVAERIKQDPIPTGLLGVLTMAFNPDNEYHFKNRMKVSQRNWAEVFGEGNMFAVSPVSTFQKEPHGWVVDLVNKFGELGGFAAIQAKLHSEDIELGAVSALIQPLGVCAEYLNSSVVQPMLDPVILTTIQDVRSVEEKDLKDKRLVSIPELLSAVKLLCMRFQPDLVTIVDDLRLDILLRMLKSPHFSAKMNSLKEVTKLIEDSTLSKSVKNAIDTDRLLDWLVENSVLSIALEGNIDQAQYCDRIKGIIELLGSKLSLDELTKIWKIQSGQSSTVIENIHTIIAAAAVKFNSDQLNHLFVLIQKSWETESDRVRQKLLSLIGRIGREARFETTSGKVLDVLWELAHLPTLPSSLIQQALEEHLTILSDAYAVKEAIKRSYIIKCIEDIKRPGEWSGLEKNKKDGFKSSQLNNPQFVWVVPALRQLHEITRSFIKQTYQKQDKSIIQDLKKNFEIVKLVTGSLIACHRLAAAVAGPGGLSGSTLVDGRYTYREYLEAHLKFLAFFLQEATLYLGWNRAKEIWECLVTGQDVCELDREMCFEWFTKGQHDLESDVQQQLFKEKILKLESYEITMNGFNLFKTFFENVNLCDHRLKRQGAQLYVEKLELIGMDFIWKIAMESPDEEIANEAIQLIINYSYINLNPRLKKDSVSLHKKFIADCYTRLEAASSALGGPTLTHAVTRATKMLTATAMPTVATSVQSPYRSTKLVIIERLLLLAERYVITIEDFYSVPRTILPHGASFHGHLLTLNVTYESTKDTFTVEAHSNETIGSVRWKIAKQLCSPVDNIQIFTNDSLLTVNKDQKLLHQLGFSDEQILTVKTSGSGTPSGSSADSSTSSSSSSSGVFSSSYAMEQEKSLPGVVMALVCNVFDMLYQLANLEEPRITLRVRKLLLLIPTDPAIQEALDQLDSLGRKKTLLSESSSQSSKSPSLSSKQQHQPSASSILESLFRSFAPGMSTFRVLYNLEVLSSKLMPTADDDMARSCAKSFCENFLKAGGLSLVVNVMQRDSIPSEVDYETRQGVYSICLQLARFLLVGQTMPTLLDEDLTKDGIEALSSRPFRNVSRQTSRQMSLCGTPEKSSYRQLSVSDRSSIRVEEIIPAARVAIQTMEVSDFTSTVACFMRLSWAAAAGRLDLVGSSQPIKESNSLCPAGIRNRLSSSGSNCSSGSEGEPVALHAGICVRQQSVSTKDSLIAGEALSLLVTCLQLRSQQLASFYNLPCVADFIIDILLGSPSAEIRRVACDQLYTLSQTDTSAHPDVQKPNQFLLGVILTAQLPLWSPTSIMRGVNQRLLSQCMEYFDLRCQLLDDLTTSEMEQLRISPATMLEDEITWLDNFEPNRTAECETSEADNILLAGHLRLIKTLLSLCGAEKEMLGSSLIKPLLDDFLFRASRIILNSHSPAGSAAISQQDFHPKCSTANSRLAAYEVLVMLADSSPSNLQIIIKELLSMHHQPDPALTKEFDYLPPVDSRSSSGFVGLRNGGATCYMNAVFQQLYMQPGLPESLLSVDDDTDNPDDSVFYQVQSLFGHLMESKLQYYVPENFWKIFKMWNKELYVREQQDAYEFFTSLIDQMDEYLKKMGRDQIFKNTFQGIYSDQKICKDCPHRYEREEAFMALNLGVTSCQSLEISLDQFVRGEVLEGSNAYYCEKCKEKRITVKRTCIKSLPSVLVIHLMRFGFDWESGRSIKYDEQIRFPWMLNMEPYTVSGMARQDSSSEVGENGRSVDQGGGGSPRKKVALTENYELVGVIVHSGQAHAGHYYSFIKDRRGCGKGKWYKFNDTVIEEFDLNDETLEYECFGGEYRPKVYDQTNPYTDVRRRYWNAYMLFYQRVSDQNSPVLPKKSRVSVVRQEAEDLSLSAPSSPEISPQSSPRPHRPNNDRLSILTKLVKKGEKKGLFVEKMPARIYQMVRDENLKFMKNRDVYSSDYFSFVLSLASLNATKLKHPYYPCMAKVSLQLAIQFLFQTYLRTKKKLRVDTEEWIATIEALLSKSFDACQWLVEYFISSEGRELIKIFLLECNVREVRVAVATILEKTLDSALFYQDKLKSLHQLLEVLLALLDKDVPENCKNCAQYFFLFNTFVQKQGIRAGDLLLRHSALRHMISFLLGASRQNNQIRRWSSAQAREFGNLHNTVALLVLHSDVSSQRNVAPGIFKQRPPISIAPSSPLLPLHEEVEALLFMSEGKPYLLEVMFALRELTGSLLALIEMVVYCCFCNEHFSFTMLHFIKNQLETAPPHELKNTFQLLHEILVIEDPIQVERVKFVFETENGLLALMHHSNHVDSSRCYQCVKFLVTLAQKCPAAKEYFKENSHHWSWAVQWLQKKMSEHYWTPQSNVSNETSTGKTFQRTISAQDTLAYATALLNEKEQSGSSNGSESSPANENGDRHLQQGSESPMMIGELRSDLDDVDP

Usp9x = Usp9x (Homo sapiens, UniProt Q93008); test: Usp9x activity, Mcl-1 and PARP in tumors extracted from treated mice; format: in vivo, NSG mice; design: from tissue; host or cells: MM1.S xenograft tumour extracted from NSG mice; conditions: 15 mg/kg, tumors extracted one hour after last injection
Chain of Usp9x (Q93008 whole entry): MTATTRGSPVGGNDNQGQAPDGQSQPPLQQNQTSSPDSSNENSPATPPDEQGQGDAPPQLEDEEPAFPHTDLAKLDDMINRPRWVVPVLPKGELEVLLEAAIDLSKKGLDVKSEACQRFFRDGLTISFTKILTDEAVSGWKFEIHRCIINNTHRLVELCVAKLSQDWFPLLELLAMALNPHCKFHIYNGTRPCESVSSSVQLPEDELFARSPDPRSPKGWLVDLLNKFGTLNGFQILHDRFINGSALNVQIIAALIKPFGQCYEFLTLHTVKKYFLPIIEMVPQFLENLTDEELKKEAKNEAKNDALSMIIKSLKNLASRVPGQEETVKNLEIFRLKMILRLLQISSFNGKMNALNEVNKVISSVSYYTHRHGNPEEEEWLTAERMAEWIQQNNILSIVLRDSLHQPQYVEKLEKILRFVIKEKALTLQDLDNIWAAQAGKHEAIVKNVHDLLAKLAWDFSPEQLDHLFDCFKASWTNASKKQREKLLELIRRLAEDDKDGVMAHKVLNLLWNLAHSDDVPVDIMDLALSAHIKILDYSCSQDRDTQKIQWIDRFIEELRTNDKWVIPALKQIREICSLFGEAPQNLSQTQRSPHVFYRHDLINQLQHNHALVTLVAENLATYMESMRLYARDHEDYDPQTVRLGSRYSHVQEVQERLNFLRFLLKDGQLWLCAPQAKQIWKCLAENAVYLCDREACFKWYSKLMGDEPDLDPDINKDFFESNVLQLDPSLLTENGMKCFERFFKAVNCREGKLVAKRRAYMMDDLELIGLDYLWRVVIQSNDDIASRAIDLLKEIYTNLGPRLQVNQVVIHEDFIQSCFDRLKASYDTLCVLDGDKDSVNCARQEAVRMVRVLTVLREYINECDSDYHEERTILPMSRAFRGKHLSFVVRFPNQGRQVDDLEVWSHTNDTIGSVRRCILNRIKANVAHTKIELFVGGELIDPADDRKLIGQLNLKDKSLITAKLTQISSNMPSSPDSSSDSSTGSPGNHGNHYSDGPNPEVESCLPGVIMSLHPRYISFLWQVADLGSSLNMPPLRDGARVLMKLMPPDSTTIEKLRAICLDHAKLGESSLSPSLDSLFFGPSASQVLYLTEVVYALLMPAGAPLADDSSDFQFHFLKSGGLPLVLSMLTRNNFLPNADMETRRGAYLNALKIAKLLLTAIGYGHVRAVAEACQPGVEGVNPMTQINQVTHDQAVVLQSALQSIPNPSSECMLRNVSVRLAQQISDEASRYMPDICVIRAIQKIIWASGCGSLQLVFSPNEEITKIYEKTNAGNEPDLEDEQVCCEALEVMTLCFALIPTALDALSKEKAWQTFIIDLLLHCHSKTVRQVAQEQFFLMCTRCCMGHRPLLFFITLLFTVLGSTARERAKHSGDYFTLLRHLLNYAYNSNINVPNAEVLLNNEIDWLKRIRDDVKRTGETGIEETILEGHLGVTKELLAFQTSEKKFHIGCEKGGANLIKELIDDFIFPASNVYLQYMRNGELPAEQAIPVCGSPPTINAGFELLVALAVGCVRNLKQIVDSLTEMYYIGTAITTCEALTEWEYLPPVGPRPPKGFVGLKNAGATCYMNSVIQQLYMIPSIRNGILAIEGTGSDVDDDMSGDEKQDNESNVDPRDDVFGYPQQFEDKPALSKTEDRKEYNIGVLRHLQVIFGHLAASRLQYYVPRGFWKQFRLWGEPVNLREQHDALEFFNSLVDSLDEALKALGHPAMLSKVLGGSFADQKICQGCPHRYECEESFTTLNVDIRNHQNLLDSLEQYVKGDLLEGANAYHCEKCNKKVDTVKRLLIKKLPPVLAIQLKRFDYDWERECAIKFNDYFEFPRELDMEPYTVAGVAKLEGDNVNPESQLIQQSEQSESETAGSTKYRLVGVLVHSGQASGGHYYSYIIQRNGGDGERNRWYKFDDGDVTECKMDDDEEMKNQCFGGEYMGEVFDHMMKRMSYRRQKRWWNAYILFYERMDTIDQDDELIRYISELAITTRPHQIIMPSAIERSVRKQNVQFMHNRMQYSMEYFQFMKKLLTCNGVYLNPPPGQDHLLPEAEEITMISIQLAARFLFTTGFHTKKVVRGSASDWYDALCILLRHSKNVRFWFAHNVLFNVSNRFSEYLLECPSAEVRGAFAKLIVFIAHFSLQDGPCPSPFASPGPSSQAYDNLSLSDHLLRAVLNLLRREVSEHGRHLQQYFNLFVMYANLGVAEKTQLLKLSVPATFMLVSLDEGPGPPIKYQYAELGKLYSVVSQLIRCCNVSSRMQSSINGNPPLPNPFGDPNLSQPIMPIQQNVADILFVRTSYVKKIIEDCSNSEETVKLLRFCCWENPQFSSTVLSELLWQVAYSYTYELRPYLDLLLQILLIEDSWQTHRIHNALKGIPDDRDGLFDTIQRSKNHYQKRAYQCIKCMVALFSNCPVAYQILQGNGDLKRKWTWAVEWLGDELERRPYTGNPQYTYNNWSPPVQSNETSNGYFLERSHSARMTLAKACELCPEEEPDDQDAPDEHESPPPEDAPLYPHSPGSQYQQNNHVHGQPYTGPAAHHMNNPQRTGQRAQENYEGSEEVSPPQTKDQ
Procedure: To analyze that potential, mice were euthanized one hour after their last injection and tumors were extracted, photographed and flash-frozen on dry ice. Tumor tissue was sheared in liquid nitrogen, ground to a powder with a mortar and pestle and proteins extracted to assess Usp9x activity in 20 μg of protein from each tumor specimen. Tumors extracted from control and 15 mg/kg G9 treated mice were assessed for Usp9x activity as described above. […] Also shown are the effects of treatment on Usp9x and Usp24 protein, the latter a DUB closely related to Usp9x. The effect of G9 on the Usp9x substrate Mcl-1, and on cleavage of caspase substrate PARP, are also shown.

CCCC(NC(=O)/C(C#N)=C/c1nc(Cl)ccc1Cl)c1ccc(OCCN2CCOCC2)cc1 (centres unmarked) [Compound G9, (E)-2-Cyano-3-(3,6-dichloropyridin-2-yl)-N-(1-(4-(2-morpholinoethoxy)phenyl)butyl)acrylamide]
Usp9xCD inhibitory activity compared to WP1130 [1]: superior inhibitors of Usp9xCD
caspase activity (PARP cleavage) (Mcl-1, PARP; MM1.ST cells, 5 μM): activation of caspase activity
Mcl-1 level (Mcl-1, PARP; MM1.ST or PCL cells, 5 μM): reduction in Mcl-1
level of Mcl-1 (Mcl-1, PARP; Z138 lymphoma cells, 1.25, 2.5 and 5 μM, 4 hours): reduce the level of a downstream target of Usp9x
solubility compared with earlier inhibitor (aqueous solubility): improved solubility
solubility (aqueous solubility; aqueous medium (not specified further)): 19.8 µM (≈ 9.97 µg/mL)
animal weight (MM1.S tumor; IP once per day for 14 days, 2.5, 5 and 10 mg/kg): not affected
MM1.S tumor growth (MM1.S tumor; IP once per day for 14 days, 2.5, 5 and 10 mg/kg (all doses)): reduced MM1.S tumor growth
MM1.S tumor growth compared to controls (MM1.S tumor; IP once per day for 14 days, 5 and 10 mg/kg): significant reduction in MM1.S tumor growth
MM1.S tumor growth (MM1.S tumor; daily injection for 12 days, 5, 10, 15 and 20 mg/kg (all doses)): suppressed MM1.S tumor growth
animal weight (MM1.S tumor; daily injection for 12 days, 10-20 mg/kg): some weight loss
MM1.S tumor size (MM1.S tumor; daily injection for 12 days, 15 and 20 mg/kg): tumor regression
antiviral activity against murine norovirus (murine norovirus): exhibits antiviral activity against murine norovirus
Usp24 inhibition (Usp24): inhibited the DUB Usp24
Mcl-1 protein levels in MM1.S tumors (Usp9x): reduces Mcl-1 protein levels
Usp9x DUB activity in MM1.S tumors (Usp9x): reduces Usp9x DUB activity
apoptosis (PARP cleavage) in MM1.S tumors (Usp9x): activates apoptosis
